From US12071586B2, “Composition and method for controlling bacteria in formations” (priority 2017, dated 2024)

Legend:
[1] = test system: SRB; experiment: Hydrogen sulfide inhibition in actual produced water (Eagle Ford shale, diluted to 3%), H2S by Draeger tubes; format: cell-based, sulfate-reducing bacteria (SRB); details: 20 ppm MoO4 alone, actual produced water (Example 7)
Experimental: (§1) Hydrogen sulfide inhibition was tested in mock-produced water approximating water used in hydraulic fracturing operations and was made to a total dissolved solids concentration of 3% with a mixture of instant ocean and NaCl salts. The water was supplemented with nutrients and sulfate to allow SRB to metabolize and create H2S. The water was spiked with SRB and then treated with the various treatment conditions noted below in Table 3 and sealed. Treatment conditions were: Control: No biocide or nitrate.
(§2) H2S was measured at intervals using H2S detecting Draeger tubes. Dissolved H2S was released into the gas phase with the addition of hydrochloric acid so that H2S could be measured with the Draeger tubes to get a complete reading of all H2S produced during the course of the example.
Samples were prepared in accordance with Example 4, except that actual produced water sourced from the Eagle Ford shale that was diluted to 3% using deionized water was used in the samples.
Example 7 was performed in accordance with Example 6 using actual produced water. Samples of the following were mixed with the […].

[2] = test system: SRB; experiment: Hydrogen sulfide inhibition in mock-produced water spiked with SRB, H2S by Draeger tubes; format: cell-based, sulfate-reducing bacteria (SRB); details: 20 ppm MoO4 alone, mock produced water (Example 6)
Experimental: as §1, §2
Example 6 was performed in accordance with Example 4 using mock produced water. Samples of the following were mixed with the mock produced water.

[O]=[Mo](=[O])([O-])[O-] [MoO4, molybdate]
Total H2S [1]: 3188 ppm | Total H2S [2]: 1974 ppm
